# Experimental data reported in patent US20120269799A1, “DIAGNOSTIC AND TREATMENT METHODS USING A LIGAND LIBRARY” (priority 2011, published 2012).
# System: anti-DNP antibody
# Experiment: Competition between free ethanolamine-DNP and DNP on a plate
# Format: binding
# Settings: 1,000 ug/mL sera concentration
# Protocol: The Mean fluorescence intensity (MFI) separation was greatest at the higher dilution of 1,000 ug/mL sera.
compound,measurement,value
O=[N+]([O-])c1ccc(NCCO)c([N+](=O)[O-])c1 [ethanolamine-DNP],competition with the binding of DNP (on a plate) to anti-DNP antibody,direct competition
